Laboratory results as given in patent publication US20100113457A1, “NOVEL PYRIDAZINE DERIVATIVES” (SYNGENTA CROP PROTECTION, INC., priority 2006, published 2010).

Columns and labels:
Uncinula Necator = test: Uncinula necator / grape / preventive (powdery mildew); format: in vivo; settings: Erysiphe necator, 168 h, spray, grape seedlings cv. Gutedel, assessed 7 days after inoculation, read-out: inhibition of fungal infestation
Protocol: Uncinula Necator/Drape/Preventive (Action Against Powdery Mildew on Grape) 5 weeks old grape seedlings cv. Gutedel are treated with the formulated test compound in a spray chamber. One day after application grape plants are inoculated by shaking plants infected with grape powdery mildew above the test plants. After an incubation period of 7 days at 24° C./22° C. and 70% r. h. under a light regime of 14/10 h (light/dark) the disease incidence is assessed.

Alternaria Solani = test: Alternaria solani / tomato / preventive; format: in vivo; settings: 96 h, spray, tomato plants cv. Roter Gnom, assessed 4 days after inoculation, read-out: inhibition of fungal infestation
Protocol: (§1) Alternaria Solani/Tomato/Preventive (Action Against Alternaria on Tomato) 4 weeks old tomato plants cv. Roter Gnom are treated with the formulated test compound in a spray chamber. Two days after application tomato plants are inoculated by spraying a spore suspension on the test plants. After an incubation period of 4 days at 22° C./18° C. and 95% r. h. in a greenhouse the disease incidence is assessed.

[1] = system: Magnaporthe Grisea (Pyricularia oryzae); test: whole plant or invertebrate; format: in vivo; settings: 144 h, read-out: inhibition of fungal infestation
Botrytis Cinerea = test: Botrytis cinerea / tomato / preventive; format: in vivo; settings: 72 h, spray, tomato plants cv. Roter Gnom, assessed 3 days after inoculation, read-out: inhibition of fungal infestation
Protocol: as §1, with “Botrytis Cinerea/Tomato/Preventive (Action” for “Alternaria Solani/Tomato/Preventive (Action”, “Against Botrytis” for “Against Alternaria”, “of 3” for “of 4”, “at 20°” for “at 22° C./18°”

Puccinia Recondita = test: Puccinia recondita / wheat / preventive (brown rust); format: in vivo; settings: 264 h, spray, wheat plants cv. Arina, assessed 11 days after inoculation, read-out: inhibition of fungal infestation
Protocol: Puccinia Recondita/Wheat/Preventive (Action Against Brown Rust on Wheat) 1 week old wheat plants cv. Arina are treated with the formulated test compound in a spray chamber. One day after application wheat plants are inoculated by spraying a spore suspension ([…] uredospores/ml) on the test plants. After an incubation period of 1 day at 20° C. and 95% r. h. plants are kept for 10 days 20° C./18° C. (day/night) and 60% r.h. in a greenhouse. The disease incidence is assessed 11 days after inoculation.

Septoria Tritici = test: Septoria tritici / wheat / preventive (leaf spot); format: in vivo; settings: Zymoseptoria tritici, spray, wheat plants cv. Riband, assessed 16-18 days after inoculation, read-out: inhibition of fungal infestation
Protocol: Septoria Tritici/Wheat/Preventive (Action Against Septoria Leaf Spot on Wheat) 2 weeks old wheat plants cv. Riband are treated with the formulated test compound in a spray chamber. One day after application wheat plants are inoculated by spraying a spore suspension (10^6 conidia/ml) on the test plants. After an incubation period of 1 day at 22° C./21° C. and 95% r. h. plants are kept at 22° C./21° C. and 70% r.h. in a greenhouse. The disease incidence is assessed 16-18 days after inoculation.

[2] = system: Prenophora Teres (Helminthosporium Teres); test: Pyrenophora teres / barley / preventive (net blotch); format: in vivo; settings: 96 h, spray, barley plants cv. Regina, assessed 4 days after inoculation, read-out: inhibition of fungal infestation
Protocol: Prenophora Teres (Helminthosporium Teres)/Barley/Preventive (Action Against Net Blotch on Barley) 1-week-old barley plants cv. Regina are treated with the formulated test compound in a spray chamber. Two days after application barley plants are inoculated by spraying a spore suspension (2.6×10^4 conidia/ml) on the test plants. After an incubation period of 4 days at 20° C. and 95% r. h. the disease incidence is assessed.

| Compound | inhibition at 200 ppm (Uncinula Necator) | inhibition at 200 ppm (Alternaria Solani) | inhibition at 200 ppm [1] | inhibition at 200 ppm (Botrytis Cinerea) | inhibition at 200 ppm (Puccinia Recondita) | inhibition at 200 ppm (Septoria Tritici) | inhibition at 200 ppm [2] | melting point |
| --- | --- | --- | --- | --- | --- | --- | --- | --- |
| Cc1nnc(F)c(-c2c(F)cc(F)cc2F)c1-c1ccc(Cl)cc1 [I.c.127, 4-(4-chlorophenyl)-6-fluoro-3-methyl-5-(2,4,6-trifluorophenyl)-pyridazine] | ≥ 80% | ≥ 80% | ≥ 80% | ≥ 80% | ≥ 80% | ≥ 80% | ≥ 80% |  |
| Cc1nnc(OCC(F)(F)F)c(-c2c(F)cc(F)cc2F)c1-c1ccc(Cl)cc1 [I.c.129, 4-(4-chlorophenyl)-3-methyl-6-(2,2,2-trifluoroethoxy)-5-(2,4,6-trifluorophenyl)-pyridazine] | ≥ 80% | ≥ 80% |  |  |  | ≥ 80% |  | 105 to 108 °C |
